Source: US20220008325A1, “WHITE PINE BARK EXTRACT FOR DECREASING ENDOTHELIN-1 SECRETION, STEM CELL FACTOR SYNTHESIS AND PROTEIN CARBONYLATION” (International Flavors & Fragrances Inc., priority 2018, published 2022)

Tested on: pigmented reconstructed human epidermis (RHE)
Experiment: Melanin synthesis in ex vivo pigmented reconstructed human epidermis (Fontana-Masson staining)
Assay type: cell-based
Details: pigmented RHE phototype IV, topical formulation (2% extract or 1% kojic acid), 3 days, 2 applications per day, vs placebo formula
Experimental: Non-pigmented reconstructed human epidermis (RHE) and pigmented RHE phototype IV were prepared by seeding human melanocytes and keratinocytes in an incubation chamber placed on the epidermal side of a dead dermis at 4×10^5 cells per cm^2, at a 1:20 melanocyte:keratinocyte ratio. After 24 hours, the incubation chamber was removed and the dead dermis was submerged for 3 days. The dead dermis was moved to the air-liquid interface for 8 days prior to treatment. After 8 days of exposure to the air-liquid interface, the pigmented RHE and non-pigmented RHE were contacted with Pinus strobus bark extract, placebo, negative control (no treatment), or positive control (kojic acid). This involved topical application of each formulation for 3 days, 2 applications per day (see FIG. 5). After 3 days, pigmented RHE was incubated for 3 days in the presence of a 1:1 mixture of fresh media and conditioned media from the non-pigmented RHE. The formulations included Heliogel™ (sodium acrylates copolymer, hydrogenated polyisobutene, phospholipids, polyglyceryl-10 stearate, sunflower seed oil; Lucas Meyer Cosmetics), Saboderm TCC (Caprylic/Capric Triglyceride; SABO, S.p.A), and Dekaben C (phenoxyethanol, methylparaben, ethylparaben, butylparaben, isobutylparaben, propylparaben; Jan Dekker BV) in the amounts listed in Table 1. Pigmentation was evaluated by Fontana-Masson staining. […]

O=c1cc(CO)occ1O [Kojic acid]
decrease in melanin synthesis: 8.1%
